Measured values taken from patent US20060128695A1, “Cyclic nucleotide phosphodiesterase inhibitors, preparation and uses” (NEURO3D, priority 2002, published 2006).

How the values were obtained:
[1] = test system: mice; assay: Light/dark test; type: in vivo, Balb/c or Swiss mice; conditions: mice, 0.3, 3 and 30 mg/kg orally 1 hour before the test, versus controls (p<0.01)
Description: This light/dark test is based on the natural tendency of rodents to prefer a dark environment and thereby evaluates the emotional responses of the animals in a situation of bright light. This procedure is suitable for assessing the state of anxiety elicited by anxiety stimuli (Lister's group, 1990). Mice placed in the apparatus, while showing a preference for the dark zone, nonetheless explore the light zone.
Ten to eleven-week old Balb/c or Swiss mice were used. Mice were randomly divided into a control group (treated with the vehicle) and other groups treated with the test compounds.
The test apparatus consisted of two PVC compartments (20×20×14 cm). with a plexiglass lid. One of the compartments was dark. A 100W light bulb was placed 15 cm above the other compartment, emitting the only light in the room (approximately 4400 lux). An opaque plastic tunnel separated the light and dark compartments.
The animal was placed in the light compartment with its head pointed towards the tunnel. The time spent in the light compartment and the number of entries into the light compartment were recorded for 5 minutes after the first entry into the dark zone. The test compound or the control treatment were administered orally 1 hour before the test.
N=10; ** p<0.01; **** p<0.001 (Dunnett test versus control).

[2] = biological target: T1, PDE5 (Bos taurus, UniProt Q28156); assay: Selectivity: inhibition of PDE5, radioenzymatic phosphodiesterase assay; type: biochemical, bovine; conditions: 10 μM test compound; vascular smooth muscle; read-out: PDE5 percentage inhibition at 10 μM
T1 construct: localize the different enzymes PDE1, PDE3, PDE4 and PDE5 which were aliquoted and frozen; from tissue; host or cells: bovine aortic media (vascular smooth muscle)
Procedure: A 3 g segment of bovine aortic media cut into pieces with scissors was homogenized with an ultra-turrax then a potter glass/glass homogenizer in 7 volumes by weight of buffer A containing a protease inhibitor cocktail (20 mM Tris-HCl, 0.25 M saccharose, 2 mM magnesium acetate, 1 mM dithiothreitol, 5 mM EGTA, 2000 U/ml aprotinin, 10 mg/l leupeptin and 10 mg/l soya trypsic inhibitor). The homogenizate was centrifuged at 105,000 g for 1 hour. The supernatant was loaded on a DEAE-Sephacel column (15 x 1.6 cm) pre-equilibrated with buffer B (buffer A without the saccharose, EGTA and protease inhibitors). The column was washed until there was no detectable absorption at 280 nm, then eluted with a linear gradient of NaCl (0-0.5 M) in buffer B. 3-ml fractions were collected and enzyme activity was determined under the conditions described hereinbelow to localize the different enzymes PDE1, PDE3, PDE4 and PDE5 which were aliquoted and frozen at −80° C. (Lugnier et al., Biochem. Phamacol., 1986, 35: 1746-1751). PDE2 was prepared from bovine endothelial cells by the same methods (Lugnier and Schini, Biochem. Pharmacol., 1990, 39: 75-84).
Cyclic nucleotide phosphodiesterase activity was determined by a radioenzymatic method using tritium-labelled cyclic GMP or AMP (1 μM) as substrate (Lugnier et al., 1986). ^3H-labelled adenosine or guanosine monophosphate formed by hydrolysis of the radiolabelled cyclic nucleotide was then converted to ^3H-labelled adenosine or guanosine in a second reaction with […] in excess. The nucleoside formed was separated from the nucleotides by anion exchange chromatography. Nucleoside radioactivity was determined by liquid scintillation counting. Enzymatic incubations were carried out under conditions allowing no more than 15% hydrolysis of the substrate; each point was performed in duplicate.
The activity of the compounds was evaluated on other phosphodiesterase isoforms, particularly basal state or calmodulin-activated PDEl from vascular smooth muscle, PDE3, PDE4 and PDE5 from vascular smooth muscle.
The results obtained are presented in Tables 1 and 2 hereinbelow and are expressed as the percentage inhibition of enzymatic activity produced by […] of the test compound.

[3] = biological target: T2, PDE2 (Bos taurus, UniProt P14099); assay: Inhibition of PDE2, radioenzymatic phosphodiesterase assay; type: biochemical, bovine
T2 construct: PDE2 was prepared from bovine endothelial cells by the same methods; endogenous in cells; host or cells: bovine endothelial cells
T2 sequence (P14099 1-921): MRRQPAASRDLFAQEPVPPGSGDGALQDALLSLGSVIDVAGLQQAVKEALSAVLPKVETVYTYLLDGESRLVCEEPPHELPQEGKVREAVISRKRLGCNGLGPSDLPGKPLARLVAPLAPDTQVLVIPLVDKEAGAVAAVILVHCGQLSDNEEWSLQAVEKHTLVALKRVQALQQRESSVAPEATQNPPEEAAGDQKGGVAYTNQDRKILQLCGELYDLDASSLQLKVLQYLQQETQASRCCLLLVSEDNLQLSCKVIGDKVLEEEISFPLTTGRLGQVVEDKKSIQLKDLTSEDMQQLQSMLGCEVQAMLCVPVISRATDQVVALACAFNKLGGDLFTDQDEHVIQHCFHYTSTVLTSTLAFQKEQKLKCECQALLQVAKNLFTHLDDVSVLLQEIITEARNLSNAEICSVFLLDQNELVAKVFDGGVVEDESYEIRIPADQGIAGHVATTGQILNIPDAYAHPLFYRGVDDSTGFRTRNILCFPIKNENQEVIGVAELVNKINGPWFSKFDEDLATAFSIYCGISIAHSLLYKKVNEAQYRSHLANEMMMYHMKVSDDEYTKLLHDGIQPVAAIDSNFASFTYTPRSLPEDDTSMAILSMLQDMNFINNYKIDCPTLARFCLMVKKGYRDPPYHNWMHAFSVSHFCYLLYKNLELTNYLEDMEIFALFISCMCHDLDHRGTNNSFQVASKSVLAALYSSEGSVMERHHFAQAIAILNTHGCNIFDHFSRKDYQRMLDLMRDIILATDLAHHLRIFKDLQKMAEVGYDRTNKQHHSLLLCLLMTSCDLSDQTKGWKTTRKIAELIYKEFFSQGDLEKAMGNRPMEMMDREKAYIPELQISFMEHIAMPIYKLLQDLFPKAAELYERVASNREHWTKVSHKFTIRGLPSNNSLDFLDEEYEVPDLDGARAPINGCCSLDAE

COc1cc2c(cc1OC)N(C)C(=O)CN=C2c1cccc(C(N)=O)c1 [Compound 5a, 3-(7,8-dimethoxy-1-methyl-2-oxo-2,3-dihydro-1H-1,4-benzodiazepin-5-yl)-benzamide]
time spent in the light compartment [1]: significantly more time in the light compartment
inhibition at 10 µM [2]: 17.6%
IC50 [3]: 1500 nM
